Experimental data taken from patent US7691966B2, “Method for quantitative analysis for prolyl hydroxylase activity using fluorescence polarization” (Korea Institute of Science and Technology, priority 2005, dated 2010).

How the values were obtained:
[1] = target: T1, VBC protein (Homo sapiens, UniProt P40337); test: Fluorescence polarization competition assay for inhibitors of F-HyP564 peptide-VBC protein binding; conditions: 100 nM F-HyP564, 500 nM VBC, competitor 0 to 500 μM
T1 construct: made in house; host or cells: E. coli BL21 (DE3)
Procedure: (§1) Fluorescence polarization changes were measured during the formation of protein-ligand complex of VBC protein and the above peptides prepared in Example 1, to investigate binding capacity and characteristics thereof. Fluorescence polarization was measured by using fluorometer (Perkin-Elmer), and the size of slit was 5 nm and integration time was 5 seconds. A buffer solution containing 50 mM Tris and 120 mM NaCl, pH 8.0, was supplemented with NP-40 (nonidet P40) by 0.5%, for being utilized for the experiments of binding and interaction.
Fluorescence polarization of the reaction solution was measured.
After mixing, fluorescence polarization changes were measured.

[2] = target: T1, VBC protein; test: Fluorescence polarization binding of fluorescent labeled HIF-1 peptide to VBC protein
Text: Human von Hippel-Lindau gene fragment (corresponding to 54˜213 a.a. region of the amino acid sequence represented by GenBank Accession No: NM000551) and human Elongin B fragment (corresponding to 1˜118 a.a. region of the amino acid sequence represented by GenBank Accession No: NM007108) were inserted into a modified pGEX-4T-1, resulting in plasmid pGEX4T-VHL-EB. Likewise, human Elongin C fragment (corresponding to 17˜112 a.a. region of the amino acid sequence represented by GenBank Accession No: NM005648) was inserted into pET29b vector, resulting in plasmid PDEV-EC (Novagen). The plasmids were co-expressed massively in E. coli BL21 (DE3) (Novagen).
as §1
After mixing, fluorescence polarization was measured.

Compound	fluorescence polarization change on addition of competitor peptide [1]	further results
CC[C@H](C)[C@H](NC(=O)[C@H](Cc1ccc(O)cc1)NC(=O)[C@@H]1C[C@@H](O)CN1C(=O)[C@H](C)NC(=O)[C@H](CC(C)C)NC(=O)[C@H](C)N)C(=O)N1CCC[C@H]1C(=O)N[C@@H](C)C(=O)O [Hy-N fragment, ALAHyPYIPA]	remarkably decreased	
CC[C@H](C)[C@H](NC(=O)[C@H](Cc1ccc(O)cc1)NC(=O)[C@@H]1C[C@@H](O)CN1C(=O)[C@H](C)NC(=O)[C@H](CC(C)C)NC(=O)[C@H](C)NC(=O)[C@H](CCC(=O)O)NC(=O)[C@H](CC(C)C)NC(=O)[C@H](CC(=O)O)NC(=O)[C@H](CC(C)C)NC(=O)[C@H](CC(=O)O)NC(=O)CCCCCNC(=S)Nc1ccc2c(c1)C(=O)OC21c2ccc(O)cc2Oc2cc(O)ccc21)C(=O)N1CCC[C@H]1C(=O)N[C@@H](C)C(=O)N[C@@H](CC(=O)O)C(=O)N[C@@H](CC(=O)O)C(=O)N[C@@H](CC(=O)O)C(=O)N[C@@H](Cc1ccccc1)C(=O)N[C@@H](CCC(N)=O)C(=O)N[C@@H](CC(C)C)C(=O)N[C@@H](CCCNC(=N)N)C(=O)O [F-HyP564]		fluorescence polarization of reactant with VBC protein compared with probe itself ([2]; reacted with VBC protein at 25° C.): remarkably increased
F-P564: FITC-aminocaproic acid-labeled HIF-1α 556-575 peptide without hydroxyproline, SEQ ID NO:1		fluorescence polarization value ([2]; 100 nM peptide, 800 nM VBC protein, 25° C.): 0.066
DDDFQLR [C]	only a slight decrease	
ALAPYIPA [N]	only a slight decrease	
